Source: ChEMBL document CHEMBL4622974, “Leveraging an Open Science Drug Discovery Model to Develop CNS-Penetrant ALK2 Inhibitors for the Treatment of Diffuse Intrinsic Pontine Glioma” (J Med Chem, 2020)
Blank lines part the entries; values can stand above or below the compound they belong to.

Key:
[1] = target: Activin receptor type-1-like (Homo sapiens, UniProt P37023); assay: Inhibition of human ALK1 using casein as substrate in presence of [gamma-33P]-ATP by radiometric hotspot assay
[2] = target: Serine/threonine-protein kinase SIK2 (Homo sapiens, UniProt Q9H0K1); assay: Inhibition of SIK2 (unknown origin)
Chain of Serine/threonine-protein kinase SIK2 (Q9H0K1 whole entry): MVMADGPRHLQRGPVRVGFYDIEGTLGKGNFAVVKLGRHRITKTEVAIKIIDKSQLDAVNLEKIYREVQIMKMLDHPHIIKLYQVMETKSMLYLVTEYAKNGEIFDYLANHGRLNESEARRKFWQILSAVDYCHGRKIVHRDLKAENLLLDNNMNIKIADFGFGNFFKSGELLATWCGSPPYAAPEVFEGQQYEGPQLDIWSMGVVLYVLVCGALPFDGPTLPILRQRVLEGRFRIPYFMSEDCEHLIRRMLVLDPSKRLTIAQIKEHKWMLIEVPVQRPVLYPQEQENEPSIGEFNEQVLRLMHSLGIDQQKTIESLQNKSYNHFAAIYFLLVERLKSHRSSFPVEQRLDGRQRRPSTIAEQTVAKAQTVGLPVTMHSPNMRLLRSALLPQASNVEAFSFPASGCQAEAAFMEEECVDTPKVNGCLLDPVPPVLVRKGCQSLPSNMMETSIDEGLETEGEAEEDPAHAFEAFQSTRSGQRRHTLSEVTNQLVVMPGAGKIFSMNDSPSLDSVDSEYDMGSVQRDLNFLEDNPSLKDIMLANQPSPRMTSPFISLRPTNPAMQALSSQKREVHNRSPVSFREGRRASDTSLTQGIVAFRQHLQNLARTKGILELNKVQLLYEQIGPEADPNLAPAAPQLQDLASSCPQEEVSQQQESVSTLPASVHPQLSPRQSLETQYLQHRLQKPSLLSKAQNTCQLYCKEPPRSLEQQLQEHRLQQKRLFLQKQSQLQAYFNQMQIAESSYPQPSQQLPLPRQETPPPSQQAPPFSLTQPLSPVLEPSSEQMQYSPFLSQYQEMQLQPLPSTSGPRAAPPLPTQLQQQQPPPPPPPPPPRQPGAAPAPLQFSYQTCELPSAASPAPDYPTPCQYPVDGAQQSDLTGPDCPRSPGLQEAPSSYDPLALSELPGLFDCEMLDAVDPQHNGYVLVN

[3] = target: Alpha-2A adrenergic receptor (Homo sapiens, UniProt P08913); assay: Inhibition of recombinant human adrenergic alpha2A receptor at 10 uM incubated for 60 mins by scintillation counting method relative to control
Chain of Alpha-2A adrenergic receptor (P08913 whole entry): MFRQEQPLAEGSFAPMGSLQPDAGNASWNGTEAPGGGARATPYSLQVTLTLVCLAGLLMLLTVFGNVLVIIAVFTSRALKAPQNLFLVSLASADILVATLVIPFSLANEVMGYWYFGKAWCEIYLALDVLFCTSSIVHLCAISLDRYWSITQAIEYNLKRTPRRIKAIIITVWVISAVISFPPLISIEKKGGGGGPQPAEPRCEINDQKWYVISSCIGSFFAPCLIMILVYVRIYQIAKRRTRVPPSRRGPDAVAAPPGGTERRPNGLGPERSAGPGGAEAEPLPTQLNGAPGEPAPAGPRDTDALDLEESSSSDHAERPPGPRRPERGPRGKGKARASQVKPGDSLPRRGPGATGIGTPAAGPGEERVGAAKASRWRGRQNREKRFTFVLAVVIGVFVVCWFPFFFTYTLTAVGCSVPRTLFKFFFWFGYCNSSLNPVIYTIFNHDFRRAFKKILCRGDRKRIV

[4] = target: Alpha-1A adrenergic receptor (Rattus norvegicus, UniProt P43140); assay: Inhibition of rat adrenergic alpha1A receptor at 10 uM relative to control
Chain of Alpha-1A adrenergic receptor (P43140 whole entry): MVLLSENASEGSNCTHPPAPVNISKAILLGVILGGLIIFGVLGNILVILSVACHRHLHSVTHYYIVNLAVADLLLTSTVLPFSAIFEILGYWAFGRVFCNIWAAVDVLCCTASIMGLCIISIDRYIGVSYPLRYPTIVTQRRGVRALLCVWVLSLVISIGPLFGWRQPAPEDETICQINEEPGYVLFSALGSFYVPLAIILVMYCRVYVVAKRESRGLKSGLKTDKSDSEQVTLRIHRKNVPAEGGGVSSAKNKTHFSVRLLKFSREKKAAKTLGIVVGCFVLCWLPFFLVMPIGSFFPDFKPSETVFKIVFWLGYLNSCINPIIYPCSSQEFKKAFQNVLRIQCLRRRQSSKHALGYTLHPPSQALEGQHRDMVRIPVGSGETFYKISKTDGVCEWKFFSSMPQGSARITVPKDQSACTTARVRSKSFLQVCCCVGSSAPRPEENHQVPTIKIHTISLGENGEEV

Cytochrome P450 2C19 = Cytochrome P450 2C19 (Homo sapiens, UniProt P33261); assay: Inhibition of CYP2C19 in human liver microsomes using mephenytoin as substrate incubated for 20 mins in presence of NADPH by LC/MS/MS analysis; type: ADME
Chain of Cytochrome P450 2C19 (P33261 whole entry): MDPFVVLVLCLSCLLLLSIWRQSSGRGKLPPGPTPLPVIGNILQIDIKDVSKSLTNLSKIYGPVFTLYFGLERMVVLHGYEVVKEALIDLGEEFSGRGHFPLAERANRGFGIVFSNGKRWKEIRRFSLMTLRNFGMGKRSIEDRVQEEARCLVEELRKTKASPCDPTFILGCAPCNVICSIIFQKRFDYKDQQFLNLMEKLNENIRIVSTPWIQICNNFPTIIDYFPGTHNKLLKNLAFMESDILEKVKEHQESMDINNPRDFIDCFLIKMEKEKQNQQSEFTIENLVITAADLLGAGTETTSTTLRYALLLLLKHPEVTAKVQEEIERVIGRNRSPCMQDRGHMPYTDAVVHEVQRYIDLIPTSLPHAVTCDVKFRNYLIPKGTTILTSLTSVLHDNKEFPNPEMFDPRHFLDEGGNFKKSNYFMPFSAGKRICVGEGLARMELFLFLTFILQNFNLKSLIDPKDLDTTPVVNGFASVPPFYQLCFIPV

Cytochrome P450 3A4 [5] = target: T1, Cytochrome P450 3A4 (Homo sapiens, UniProt P08684); assay: Inhibition of CYP3A4 in human liver microsomes using midazolam as substrate incubated for 5 mins in presence of NADPH by LC/MS/MS analysis; type: ADME
T1 sequence (P08684 whole entry): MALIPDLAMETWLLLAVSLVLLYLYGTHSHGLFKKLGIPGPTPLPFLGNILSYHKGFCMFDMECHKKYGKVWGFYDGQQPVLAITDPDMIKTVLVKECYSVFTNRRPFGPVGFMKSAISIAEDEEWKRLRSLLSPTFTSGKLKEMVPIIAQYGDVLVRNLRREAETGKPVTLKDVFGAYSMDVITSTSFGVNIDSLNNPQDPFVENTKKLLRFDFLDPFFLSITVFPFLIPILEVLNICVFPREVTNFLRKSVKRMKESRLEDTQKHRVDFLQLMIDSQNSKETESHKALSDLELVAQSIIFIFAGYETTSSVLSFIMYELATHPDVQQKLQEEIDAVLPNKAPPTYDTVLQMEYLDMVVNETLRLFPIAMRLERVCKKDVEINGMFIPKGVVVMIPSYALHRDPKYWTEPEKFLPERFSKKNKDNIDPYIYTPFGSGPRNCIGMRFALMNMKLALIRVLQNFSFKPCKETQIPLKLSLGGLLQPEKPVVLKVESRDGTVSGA

Cytochrome P450 3A4 [6] = target: T1, Cytochrome P450 3A4; assay: Inhibition of CYP3A4 in human liver microsomes using testosterone as substrate incubated for 10 mins in presence of NADPH by LC/MS/MS analysis; type: ADME
[7] = Ratio of drug level in brain to plasma in CD-1 mouse at 10 mg/kg, po measured at 2 hrs; type: ADME, organism-based; settings: brain and plasma, read-out: BPR
[8] = Drug level in CD-1 mouse brain at 1 mg/kg, iv measured at 2 hrs; type: ADME, organism-based; settings: read-out: Drug uptake
[9] = Protein binding in CD-1 mouse brain at 1 mg/kg, iv measured at 2 hrs; type: ADME, organism-based; settings: read-out: PB (converted)
[10] = Toxicity in C57BL/6 mouse assessed as mouse death at 25 mg/kg, po BID administered for 5 days measured after 24 hrs; type: organism-based; settings: in vivo
[11] = Toxicity in C57BL/6 mouse assessed as mouse death at 50 mg/kg, po QD administered for 5 days measured after 24 hrs; type: organism-based; settings: in vivo
[12] = Toxicity in C57BL/6 mouse assessed as mouse death at 100 mg/kg, po QD administered for 5 days measured after 24 hrs; type: organism-based; settings: in vivo
[13] = Toxicity in C57BL/6 mouse assessed as body weight loss at 25 mg/kg, po BID administered for 5 days measured after 24 hrs relative to control; type: organism-based; settings: in vivo
[14] = Toxicity in C57BL/6 mouse assessed as body weight loss at 100 mg/kg, po QD administered for 5 days measured after 24 hrs relative to control; type: organism-based; settings: in vivo
[15] = Toxicity in C57BL/6 mouse assessed as gross pathology at 50 mg/kg, po QD administered for 5 days measured after 24 hrs relative to control; type: organism-based; settings: in vivo
[16] = Ratio of drug level in brain to plasma in CB17 SCID mouse at 25 mg/kg, po measured at 4 h; type: ADME, organism-based; settings: read-out: BPR
[17] = Ratio of drug level in brain to plasma in CB17 SCID mouse at 50 mg/kg, po measured at 4 h; type: ADME, organism-based; settings: read-out: BPR
Activin receptor type-1 = target: T2, Activin receptor type-1 (Homo sapiens, UniProt Q04771); assay: Competitive displacement of PBI-6908 from nanoluciferase-fused ALK2 (unknown origin) expressed in HEK293 cells incubated for 2 hrs by NanoBRET NanoGlo substrate based NanoBRET assay; type: cell-based
T2 sequence (Q04771 whole entry): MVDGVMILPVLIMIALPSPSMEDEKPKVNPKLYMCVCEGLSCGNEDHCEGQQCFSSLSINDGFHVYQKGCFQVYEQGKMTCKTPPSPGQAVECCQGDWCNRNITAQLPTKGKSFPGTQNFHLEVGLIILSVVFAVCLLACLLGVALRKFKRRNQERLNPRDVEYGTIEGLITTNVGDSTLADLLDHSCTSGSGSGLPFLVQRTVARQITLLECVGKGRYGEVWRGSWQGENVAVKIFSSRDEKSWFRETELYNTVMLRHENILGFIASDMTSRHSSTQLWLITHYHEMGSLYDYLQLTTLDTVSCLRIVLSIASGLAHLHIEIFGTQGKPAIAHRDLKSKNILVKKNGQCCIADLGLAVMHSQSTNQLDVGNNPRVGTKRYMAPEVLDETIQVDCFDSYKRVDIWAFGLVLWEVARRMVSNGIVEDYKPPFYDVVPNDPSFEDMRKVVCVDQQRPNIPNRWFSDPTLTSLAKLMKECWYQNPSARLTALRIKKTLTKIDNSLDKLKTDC

TGF-beta receptor type-1 = target: T3, TGF-beta receptor type-1 (Homo sapiens, UniProt P36897); assay: Inhibition of recombinant human ALK5 expressed in HEK293 cells transfected with CAGA-luciferase and Renilla luciferase reporter after 24 hrs by dual luciferase reporter assay; type: cell-based
T3 sequence (P36897 whole entry): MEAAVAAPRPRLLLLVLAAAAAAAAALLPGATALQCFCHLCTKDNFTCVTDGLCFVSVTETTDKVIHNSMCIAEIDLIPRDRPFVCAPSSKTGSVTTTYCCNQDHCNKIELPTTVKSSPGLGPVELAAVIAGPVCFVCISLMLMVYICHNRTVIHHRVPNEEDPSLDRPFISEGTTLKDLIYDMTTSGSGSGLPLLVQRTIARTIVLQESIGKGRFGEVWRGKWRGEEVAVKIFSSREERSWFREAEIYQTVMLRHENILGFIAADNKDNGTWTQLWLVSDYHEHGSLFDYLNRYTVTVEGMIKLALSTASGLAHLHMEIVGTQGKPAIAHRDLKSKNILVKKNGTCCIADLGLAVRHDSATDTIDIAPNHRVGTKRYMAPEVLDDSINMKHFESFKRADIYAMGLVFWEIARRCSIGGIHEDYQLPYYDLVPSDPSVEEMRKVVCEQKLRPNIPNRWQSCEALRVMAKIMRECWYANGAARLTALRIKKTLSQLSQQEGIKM

[18] = Drug concentration in CB17 SCID mouse brain at 100 mg/kg after 0.25 to 24 hrs; type: ADME, organism-based; settings: in vivo, read-out: Drug uptake

Chain of Activin receptor type-1-like (P37023 whole entry): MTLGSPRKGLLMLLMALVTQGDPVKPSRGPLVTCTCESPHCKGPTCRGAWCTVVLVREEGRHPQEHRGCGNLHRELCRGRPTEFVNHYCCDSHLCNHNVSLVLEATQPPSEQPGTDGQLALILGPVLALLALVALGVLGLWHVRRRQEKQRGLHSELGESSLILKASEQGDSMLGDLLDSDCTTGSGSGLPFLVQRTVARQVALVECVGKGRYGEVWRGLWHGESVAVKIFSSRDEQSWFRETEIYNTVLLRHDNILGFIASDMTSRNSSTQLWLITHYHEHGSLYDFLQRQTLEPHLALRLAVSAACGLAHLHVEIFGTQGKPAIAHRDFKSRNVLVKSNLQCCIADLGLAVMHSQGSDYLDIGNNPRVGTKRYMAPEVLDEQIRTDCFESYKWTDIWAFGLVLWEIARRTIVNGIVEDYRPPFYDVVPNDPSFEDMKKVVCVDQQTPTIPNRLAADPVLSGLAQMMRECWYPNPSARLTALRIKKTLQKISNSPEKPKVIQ

SMILES: COc1cc(-c2cncc(-c3ccc(N4CCNCC4)cc3)c2C)cc(OC)c1OC
- IC50 [1]: 15 nM
- IC50 [2]: 336 to 924 nM
- inhibition at 1 h, 10 µM [3]: 90%
- inhibition at 10 µM [4]: 65%
- IC50 (Cytochrome P450 2C19): > 30000 nM
- IC50 (Cytochrome P450 3A4 [5]): > 30000 nM
- IC50 (Cytochrome P450 3A4 [6]): > 9000 nM
- Kp at 2 h [7]: 0.9
- concentration at 2 h [8]: 0.123 µM
- fraction unbound at 2 h [9]: 0.03
- Activity [10]: Non-Toxic
- Activity [11]: Non-Toxic
- Activity [12]: Non-Toxic
- Activity [13]: Non-Toxic
- Activity [14]: Non-Toxic
- Activity [15]: Non-Toxic
- Kp at 4 h [16]: 1.5
- Kp at 4 h [17]: 1.8

- IC50 (Activin receptor type-1): 29 nM
- IC50 (TGF-beta receptor type-1): 3330 nM
- concentration [18]: 39 µM
SMILES: COc1cc(-c2cncc(-c3ccc(C4CCN(C)CC4)cc3)c2C)cc(OC)c1OC
